# Measurements: patent publication US5827838A, “Method for the treatment of diseases related with protein isoprenylation” (priority 1994, dated 1998)
# Like-named read-outs stand apart in the source and are kept apart here.
# Assays:
# [1] = biological target: T1, protein;farnesyl transferase (Oryctolagus cuniculus, UniProt G1SFC8+G1T7D9); assay: Inhibition of protein;farnesyl transferase using C-terminal octapeptide pre-p21N-ras coupled to Sepharose beads as substrate; type: biochemical, rabbit; design: substrate N-ras C-terminal octapeptide on Sepharose beads
# squalene synthase = biological target: T2, squalene synthase (Rattus norvegicus, UniProt Q02769); assay: Inhibition of squalene synthase in rat liver microsomal preparations; type: biochemical; conditions: at dosage amounts inhibiting p21ras farnesyl transferase
# T2 construct: squalene synthase in rat liver microsomal preparations; from tissue; host or cells: rat liver microsomes
# T2 sequence (Q02769 1-416): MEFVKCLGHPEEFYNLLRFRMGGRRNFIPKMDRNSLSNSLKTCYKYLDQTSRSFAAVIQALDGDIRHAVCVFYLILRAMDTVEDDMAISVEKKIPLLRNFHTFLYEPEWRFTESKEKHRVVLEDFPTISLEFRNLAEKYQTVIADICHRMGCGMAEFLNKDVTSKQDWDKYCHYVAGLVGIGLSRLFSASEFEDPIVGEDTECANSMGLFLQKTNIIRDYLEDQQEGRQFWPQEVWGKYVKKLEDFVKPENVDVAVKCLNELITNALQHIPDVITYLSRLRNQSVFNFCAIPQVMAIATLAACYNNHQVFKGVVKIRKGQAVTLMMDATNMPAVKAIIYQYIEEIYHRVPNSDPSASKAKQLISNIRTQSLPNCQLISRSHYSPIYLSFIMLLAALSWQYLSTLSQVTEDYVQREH
# [2] = system: farnesylation of p21ras in Rat-1.H-ras13 cells; type: cell-based, rat cells overexpressing human p21Ha-ras; conditions: 24 h
# Description: It was shown now that compound 3 acts as a protein: farnesyl transferase inhibitors in cultured cells. For this purpose Rat-1.H-ras13 cells, which overexpress human p21^Ha-ras (Downword J. et al., Proc. Natl. Acad. Sci. U.S.A. 1988; 85; 5774-5778), were used. These cells were incubated with [^3 H]-mevalonate and 0, 0.1, 1, 10 and 100 μM of compound 3 for 24 h in DMEM containing 1% human serum albumin and 2.5 μM of simvastatin.
# Thereafter cells were lysed in 300 μl PBS supplemented with 1% Triton X-100, 0.5% sodium deoxycholate, and the protease inhibitors phenylmethylsulfonylfluoride (1 mM), leupeptine (50 μg/ml), pepstatin A (50 μg/ml) and trasylol (300 K.I.U./ml), and p21^ras was collected on immobilized monoclonal antibody Y13-259 (Osterop A.P.R.M. et al., J. Biol. Chem. 1992; 267; 14647-14653). After separation by SDS polyacrylamide gel electrophoresis the [^3 H]-labelled polypeptides were visualized by autoradiography.
# Rat-1.H-ras13 cells = assay: Inhibition of cell proliferation of transformed Rat-1.H-ras13 cells (cell count, trypan blue exclusion); type: cell-based; conditions: 10 days
# Description: Cells were cultured for 10 days in DMEM supplemented with 10% fetal calf serum in the presence of 0, 25 or 100 μM of compound 3. At day 0, cells were plated in monolayer culture at 5×10^3 cells per well (6 well plates). On day 3 and 7, cells were re-fed with the same medium. On day 10, cells were harvested by trypsinization and counted using a standard hemocytometer chamber. Values are the mean of triplicate countings of duplicate incubations. In these ten days control cells had been proliferated exponentially to 1.94×10^6 ±0.04×10^6 cells per well.
# [3] = biological target: T1, protein;farnesyl transferase; assay: Inhibition of farnesylation of H-ras protein (p21ras precursor) by farnesyl:protein transferase in rabbit reticulocyte lysate, [3H]-FPP incorporation; conditions: different amounts of compound
# Target sequence in this assay (G1T7D9 entry or part of it, one chain of several): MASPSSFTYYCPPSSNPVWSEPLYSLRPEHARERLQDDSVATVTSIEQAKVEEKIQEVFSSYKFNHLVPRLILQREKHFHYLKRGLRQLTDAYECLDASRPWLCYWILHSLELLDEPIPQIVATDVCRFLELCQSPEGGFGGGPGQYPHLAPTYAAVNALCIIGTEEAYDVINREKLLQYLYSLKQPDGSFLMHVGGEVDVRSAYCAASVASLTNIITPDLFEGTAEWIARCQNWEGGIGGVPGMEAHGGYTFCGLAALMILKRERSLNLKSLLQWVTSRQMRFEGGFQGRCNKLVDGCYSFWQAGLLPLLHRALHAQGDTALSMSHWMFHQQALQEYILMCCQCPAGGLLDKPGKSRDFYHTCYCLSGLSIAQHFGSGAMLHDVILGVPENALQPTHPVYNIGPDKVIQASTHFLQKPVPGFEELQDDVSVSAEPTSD
# [4] = read-out: IC50, inhibition of protein;farnesyl transferase; octapeptide pre-p21N-ras on Sepharose beads as substrate
structure (smiles),measurement,setting,value
"CC(C)=CCCC(C)=CCCC(C)=CCC(OCP(=O)(O)O)P(=O)(O)O (stereo not shown) [compound 6, farnesyl(phosphono)methoxymethylphosphonic acid]",IC50,"[1]; read-out: IC50, inhibition of protein;farnesyl transferase; octapeptide pre-p21N-ras on Sepharose beads as substrate; unit μm [sic]",580 ± 440 nM
"CC(C)=CCCC(C)=CCCC(C)=CCC(CC=C(C)CCC=C(C)CCC=C(C)C)(P(=O)(O)O)P(=O)(O)O [bisfarnesylmethylenebis(phosphonic acid), reference compound]",IC50,"[1]; octapeptide pre-p21N-ras on Sepharose beads as substrate; read-out: IC50, inhibition of protein;farnesyl transferase",147000 ± 37000 nM
"CC(C)=CCCC(C)=CCCC(C)=CCP(=O)(O)OP(=O)(O)O [compound 3, farnesylphosphonophosphate]","inhibition of squalene synthesis at amounts that inhibit p21ras farnesyl transferase, result in words",squalene synthase,without inhibiting squalene synthesis
same,"radioactivity measured in p21ras / farnesylation of ras protein, result in words",[2]; 100 μM,"no radioactivity was measured, showing that the farnesylation of the ras protein was totally blocked"
same,IC50,"[2]; DMEM with 1% human serum albumin and 2.5 μM simvastatin, read-out: IC50, inhibition of farnesylation of p21ras in cells",1000 to 10000 nM
same,"radioactivity incorporated into p21ras, result in words","[2]; increasing concentrations (0.1, 1, 10, 100 μM)",less radioactivity was incorporated into p21^ras
same,"non-viable cells, trypan blue exclusion","Rat-1.H-ras13 cells; 0, 25 or 100 μM",no non-viable cells
same,"inhibition of proliferation of transformed cells, result in words",Rat-1.H-ras13 cells; 25 and 100 μM,concentration-dependently inhibits the proliferation of transformed cells in culture
same,inhibition at 25 µM,"Rat-1.H-ras13 cells; Rattus norvegicus, 240 h, 25 μM, read-out: reduction in cell numbers (of control values)",32.5%
same,inhibition at 100 µM,"Rat-1.H-ras13 cells; Rattus norvegicus, 240 h, 100 μM, read-out: reduction in cell numbers (of control values)",49.5%
same,IC50,[1]; [4],340 ± 50 nM
same,"enzyme activity (farnesyl:protein transferase), result in words",[3],concentration-dependently decreased
"CC(C)=CCCC(C)=CCCC(C)=CCOCP(=O)(O)OP(=O)(O)O [compound 5, farnesyloxymethylphosphono-phosphate]",IC50,[1]; [4],520 ± 70 nM
"CC(C)=CCCC(C)=CCCC(C)=CCCP(=O)(O)OP(=O)(O)O [compound 1, farnesylmethylphosphonophosphate]","inhibition of squalene synthesis at amounts that inhibit p21ras farnesyl transferase, result in words",squalene synthase,without inhibiting squalene synthesis
same,IC50,[1]; [4],930 ± 230 nM
same,"enzyme activity (farnesyl:protein transferase), result in words",[3],concentration-dependently decreased
